Measurements: patent US20180250308A1, “NR2B SELECTIVE NMDA-RECEPTOR ANTAGONISTS FOR TREATMENT OF IMMUNE-MEDIATED INFLAMMATORY DISEASES” (WESTFALISCHE WILHELMS-UNIVERSITAT MUNSTER, priority 2015, published 2018)

Experiments:
[1] = molecular target: T1, polyamine binding site of the NR2B subunit of the NMDA receptor (Homo sapiens, UniProt Q05586+Q13224); experiment: Filtration-based receptor binding assay with [3H]-Ifenprodil, NR2B subunit; settings: membranes of L(tk-) cells expressing NR1-1a/NR2B, Ki by Cheng-Prusoff, mean ± SEM, read-out: affinity to the NR2B binding site of the NMDA receptor
T1 construct: host or cells: mouse L(tk-) cells; expression induced with dexamethasone, then membrane homogenate prepared
T1 sequence (Q13224 27-1484, other chains not shown): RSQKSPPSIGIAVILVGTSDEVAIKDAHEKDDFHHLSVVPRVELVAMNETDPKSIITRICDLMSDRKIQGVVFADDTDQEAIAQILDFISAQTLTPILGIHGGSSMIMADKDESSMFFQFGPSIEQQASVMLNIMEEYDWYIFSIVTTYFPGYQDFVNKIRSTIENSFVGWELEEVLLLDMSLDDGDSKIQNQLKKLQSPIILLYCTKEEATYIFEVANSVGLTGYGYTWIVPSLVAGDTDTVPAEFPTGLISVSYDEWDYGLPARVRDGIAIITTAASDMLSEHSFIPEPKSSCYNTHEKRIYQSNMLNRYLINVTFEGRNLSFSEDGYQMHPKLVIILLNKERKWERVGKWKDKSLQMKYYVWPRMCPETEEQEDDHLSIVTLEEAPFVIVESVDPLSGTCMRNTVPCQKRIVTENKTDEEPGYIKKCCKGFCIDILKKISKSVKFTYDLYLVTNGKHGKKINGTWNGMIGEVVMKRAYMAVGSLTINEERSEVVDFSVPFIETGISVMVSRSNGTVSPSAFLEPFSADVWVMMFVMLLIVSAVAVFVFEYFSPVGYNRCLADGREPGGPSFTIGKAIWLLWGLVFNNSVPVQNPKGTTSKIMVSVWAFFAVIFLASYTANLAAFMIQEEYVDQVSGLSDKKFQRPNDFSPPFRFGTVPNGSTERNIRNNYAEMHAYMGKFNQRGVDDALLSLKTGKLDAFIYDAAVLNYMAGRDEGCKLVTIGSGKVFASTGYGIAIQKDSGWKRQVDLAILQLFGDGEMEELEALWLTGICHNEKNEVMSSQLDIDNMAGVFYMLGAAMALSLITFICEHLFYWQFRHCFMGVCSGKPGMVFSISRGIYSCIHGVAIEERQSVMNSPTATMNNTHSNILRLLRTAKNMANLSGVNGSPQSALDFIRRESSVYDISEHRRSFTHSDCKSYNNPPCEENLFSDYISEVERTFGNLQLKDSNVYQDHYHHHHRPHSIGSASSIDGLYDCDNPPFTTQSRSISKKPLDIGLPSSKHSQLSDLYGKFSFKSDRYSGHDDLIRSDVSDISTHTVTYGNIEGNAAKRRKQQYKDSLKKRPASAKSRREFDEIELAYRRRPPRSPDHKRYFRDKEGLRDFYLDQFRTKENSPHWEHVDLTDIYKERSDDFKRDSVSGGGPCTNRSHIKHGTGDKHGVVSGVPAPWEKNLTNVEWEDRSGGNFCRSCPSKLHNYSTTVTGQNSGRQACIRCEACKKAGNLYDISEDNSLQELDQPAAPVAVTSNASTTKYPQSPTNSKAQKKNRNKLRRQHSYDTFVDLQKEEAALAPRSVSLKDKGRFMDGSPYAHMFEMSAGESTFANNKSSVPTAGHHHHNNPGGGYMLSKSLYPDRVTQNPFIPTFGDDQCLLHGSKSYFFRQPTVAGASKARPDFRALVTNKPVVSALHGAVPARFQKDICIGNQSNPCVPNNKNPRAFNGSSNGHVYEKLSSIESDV
Experimental: The determination was performed using a filtration-based receptor binding assay on 96-well-multiplates for the polyamine binding site of the NR2B subunit of the NMDA receptor using [^3H]-Ifenprodil as radioligand.
Mouse L(tk-) cells stably transfected with the dexamethasone-inducible eukaryotic expression vectors pMSG NR1-1a, pMSG NR2B in a 1:5 ratio were a generous gift from D. […] Steinhilber (Department of Pharmacy, University of Frankfurt, Germany). The transformed L(tk-) cells were grown in Modified Earl's Medium (MEM) containing 10% of standardized FCS (Biochrom AG, Berlin, Germany). The expression of the NMDA receptor at the cell surface was induced after the cell density of the adherent growing cells had reached approximately 90% of confluency. […]
For the binding assay, the cell pellet was resuspended in PBS buffer and the number of cells was determined using an improved Neubauer's counting chamber (VWR, Darmstadt, Germany). […]
The competitive binding assay was performed with the radioligand [^3H]-Ifenprodil (60 Ci/mmol; Perkin Elmer) using standard 96-well-multiplates (Diagonal, Muenster, Germany). […] The bound radioactivity trapped on the filters was counted in the scintillation analyzer (Microbeta Counter, Perkin Elmer). […] The non-specific binding was determined with 10 μM unlabeled Ifenprodil. […]

σ1 receptor = molecular target: T2, σ1 receptor (Cavia porcellus, UniProt Q60492); experiment: Binding assay with [3H]-(+)-pentazocine, σ1 receptor; settings: guinea pig brain membranes, read-out: affinity to the σ1 receptor
T2 construct: Five guinea pig brains (Harlan Winkelmann, Borchen, Germany) were homogenized; tissue Harlan Winkelmann, Borchen, Germany; host or cells: guinea pig brain membrane preparation
T2 sequence (Q60492 whole entry): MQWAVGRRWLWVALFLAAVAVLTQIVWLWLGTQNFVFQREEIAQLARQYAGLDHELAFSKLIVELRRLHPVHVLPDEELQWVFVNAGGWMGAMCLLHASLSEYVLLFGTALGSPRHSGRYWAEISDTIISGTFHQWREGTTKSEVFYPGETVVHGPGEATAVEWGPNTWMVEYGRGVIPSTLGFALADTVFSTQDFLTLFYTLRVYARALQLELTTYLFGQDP
Experimental: Five guinea pig brains (Harlan Winkelmann, Borchen, Germany) were homogenized with the potter (500-800 rpm, 10 up-and-down strokes) in 6 volumes of cold 0.32 M sucrose. […] This procedure was repeated twice.
The incubation was terminated by rapid filtration through the presoaked filtermats using a cell harvester.

Ki [1]: 15.3 ± 1.2 nM | Ki (σ1 receptor): 194 nM
Structure (SMILES): COc1ccc2c(c1)CCN(CCCCc1ccccc1)CC2O (centres unmarked) [formula (4)]
